{"source": "patent US6369032B1", "about": "“Method for treating allergies” (Ortho-McNeil Pharmaceutical, Inc., priority 2000, dated 2002)", "key": {"[1]": {"system": "T cells stimulated with ConA, a pan-T cell mitogen", "assay": "T cell proliferative responses induced by ConA (specificity control)", "assay_type": "cell-based, human", "conditions": "PBMC from allergic donors", "description": "(§1) Reagents. Glycerinated crude allergen extracts of house dust mites (Dermataphagoides pteronyssinus, Dermataphagoides farinae) and ragweed [Ambrosia trifida (giant), Ambrosia artemisiifolia (short)] were purchased from Hollister-Stier Laboratories (Minneapolis, Minn.). Concanavalin A (ConA) was purchased from Calbiochem (La Jolla, Calif.).\n(§2) Cell culture. Human peripheral blood mononuclear cells (PBMC) were purified from blood of allergic donors using Ficoll-Hypaque gradient followed by washes with phosphate buffered saline (PBS). PBMC were cultured in triplicate or duplicate at 0.5-1.0×10^6 cells/well with titrated doses of allergen extracts, in the presence or absence of a known cathepsin S inhibitor, LHVS (morpholinurea-leucine-homo-phenylalanine-vinylsulfonephenyl) (Palmer et al. (1995), J. Med. Chem. 38:3193 and Riese et al. (1996), Immunity 4:357). Serial diluted stock solutions of LHVS were first made in 100% DMSO and then diluted 1:15 in 40% Hydroxypropynyl cyclodextrin (HPCD). Three microliters of LHVS in HPCD was added into PBMC cultures (200 μL/well). After 6 days of culture, 1 μCi/well of ^3H-thymidine (TdR) was added. Eighteen hours later, cells were harvested using a Filtermate Harvester (Packard) and counted for ^3H-TdR incorporation on Topcount (Packard). […]"}, "[2]": {"system": "HDM allergen-specific CD4 T cells", "assay": "Ex vivo human T cell proliferation assay, PBMC of allergic donors cultured with house dust mite extracts (3H-thymidine incorporation)", "assay_type": "cell-based", "conditions": "PBMC from HDM-allergic donors, 7 days culture, titrated doses of LHVS; all four donors tested", "experimental": "as §1\n(§3) Donors. All allergic donors were prescreened for their specific allergies using RAST tests. The HLA class II haplotypes of these donors were determined using PCR.\nas §2, with “After 6 days of culture, 1 μCi/well of ^3H-thymidine (TdR) was added.” left out"}, "[3]": {"system": "ragweed allergen-specific CD4 T cells", "assay": "Ex vivo human T cell proliferation assay, PBMC of allergic donors cultured with ragweed extracts (3H-thymidine incorporation)", "assay_type": "cell-based", "conditions": "PBMC from ragweed-allergic donors, 7 days culture, titrated doses of LHVS; two donors tested", "experimental": "as §1, §3\nas §2, with “After 6 days of culture, 1 μCi/well of ^3H-thymidine (TdR) was added.” left out"}, "[4]": {"system": "cathepsin S (degradation of invariant chain Ii)", "assay": "Monitoring cathepsin S inhibition in human blood: p10Ii fragment of invariant chain in PBMC by Western blot", "assay_type": "cell-based", "conditions": "PBMC from human blood, incubation for 24 h, SDS-PAGE / Western blot", "experimental": "The effect of in vivo administration of cathepsin S inhibitors, in a clinical trial setting, can be monitored by measuring accumulation of an intermediate degradation product of invariant chain (Ii), i.e. the p10Ii fragment, in blood of dosed subjects. After administration of a cathepsin inhibitor for a certain period of time, for example, 0.01 to 50 mg/kg/day to result in a blood concentration of preferably 1 nM-10 μM for 16-30 h, blood is drawn and white blood cells are purified, e.g. either by lysis of red blood cells or by a Ficoll-Hypaque gradient centrifugation. Whole cell lysates of WBC are then made and analyzed by either a Western blot assay or an ELISA assay. For the Western blot assay, cell lysates are first resolved on SDS-PAGE gels. After transferring to nitrocellulose membranes, Ii and its intermediate degradation products, including the p10Ii, can be detected using a mouse mAb against Ii, e.g. Pin1.1, or rabbit polyclonal antibodies or a mouse monoclonal antibody specific for the p10Ii fragment or against the entire p10Ii fragment. For ELISA assay, a pair of antibodies against Ii, including Pin1.1, and a rabbit polyclonal antibody against C-terminal of p10Ii, can be used. The same assay can also be applied to monitor the effect of cathepsin S inhibitors in vivo in animal studies, for example in monkeys, dogs, pigs, rabbits, guinea pigs, and rodents. […]"}}}
{"compound": "CC(C)C[C@H](NC(=O)N1CCOCC1)C(=O)N[C@H](/C=C/S(=O)(=O)c1ccccc1)CCc1ccccc1", "note": "[LHVS, 4-morpholinecarboxamide, N-[(1S)-3-methyl-1-[[[(1S,2E)-1-(2-phenylethyl)-3-(phenylsulfonyl)-2-propenyl]amino]carbonyl]butyl]-]", "values": [{"measurement": "T cell proliferative responses induced by ConA", "setting": "[1]", "value": "not affected"}, {"measurement": "T cell proliferation induced by house dust mite extracts (Der p, Der f)", "setting": "[2]", "value": "strongly inhibited"}, {"measurement": "T cell proliferation induced by ragweed extracts (short and giant)", "setting": "[3]", "value": "strongly inhibited"}, {"measurement": "p10Ii fragment (block in the degradation of Ii)", "setting": "[4]", "value": "the p10Ii fragment was seen"}]}
